Like-named read-outs stand apart in the source and are kept apart here.
How the values were obtained:
[1] = target: T1, human recombinant A1 adenosine receptor (Homo sapiens, UniProt P30542); assay: [3H]-DPCPX binding to human A1 adenosine receptor expressed in CHO cells; conditions: for [3H] DPCPX binding to hA1, percentage in parentheses: percentage given after the > bound, meaning not defined in the patent
T1 sequence (P30542 1-326): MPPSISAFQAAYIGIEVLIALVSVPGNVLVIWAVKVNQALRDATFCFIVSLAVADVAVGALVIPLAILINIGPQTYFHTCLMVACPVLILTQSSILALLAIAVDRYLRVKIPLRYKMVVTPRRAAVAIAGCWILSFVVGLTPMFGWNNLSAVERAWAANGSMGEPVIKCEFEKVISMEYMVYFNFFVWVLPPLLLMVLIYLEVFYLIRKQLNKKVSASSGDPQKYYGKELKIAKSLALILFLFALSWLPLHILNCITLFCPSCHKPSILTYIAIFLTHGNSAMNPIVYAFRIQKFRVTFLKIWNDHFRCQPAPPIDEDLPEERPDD

[2] = target: T2, human recombinant A3 adenosine receptors (Homo sapiens, UniProt P0DMS8); assay: [3H]-MRE 3008F20 binding to hA3 receptors expressed in CHO cells; conditions: for Ki: CHO cell membranes, 1 nM [3H]-MRE 3008F20, geometric mean, confidence limits in the line below, read-out: [3H] MRE3008F20 binding to hA3 receptors expressed in CHO cells Ki; for [3H] MRE3008F20 binding to hA3 receptors, percentage in parentheses: percentage printed below the > bound, meaning not defined in the patent; for A3 receptor affinity (in words) / selectivity versus the adenosine hA1 subtype (in words): qualitative statement; for selectivity versus the adenosine hA1 subtype (in words): hA3 versus hA1
T2 construct: expressed in transfected cells; host or cells: CHO cells (membranes)
T2 sequence (P0DMS8 1-318): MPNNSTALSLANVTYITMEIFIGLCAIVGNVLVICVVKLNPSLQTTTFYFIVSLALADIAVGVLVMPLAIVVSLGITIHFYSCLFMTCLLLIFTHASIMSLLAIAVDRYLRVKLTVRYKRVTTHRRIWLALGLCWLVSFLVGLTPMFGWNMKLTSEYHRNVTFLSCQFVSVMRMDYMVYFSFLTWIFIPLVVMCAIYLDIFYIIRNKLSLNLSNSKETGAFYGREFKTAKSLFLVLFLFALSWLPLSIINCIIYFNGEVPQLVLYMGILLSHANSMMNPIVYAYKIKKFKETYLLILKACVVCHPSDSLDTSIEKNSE

[3] = target: T3, human recombinant A2B adenosine receptor (Homo sapiens, UniProt P29275); assay: cAMP assay in CHO hA2B; assay type: cell-based; conditions: for cAMP assay in CHO hA22B, percentage in parentheses: percentage given after the > bound, meaning not defined in the patent; for IC50: confidence limits in parentheses, read-out: cAMP assay in CHO hA22B IC50
T3 sequence (P29275 1-332): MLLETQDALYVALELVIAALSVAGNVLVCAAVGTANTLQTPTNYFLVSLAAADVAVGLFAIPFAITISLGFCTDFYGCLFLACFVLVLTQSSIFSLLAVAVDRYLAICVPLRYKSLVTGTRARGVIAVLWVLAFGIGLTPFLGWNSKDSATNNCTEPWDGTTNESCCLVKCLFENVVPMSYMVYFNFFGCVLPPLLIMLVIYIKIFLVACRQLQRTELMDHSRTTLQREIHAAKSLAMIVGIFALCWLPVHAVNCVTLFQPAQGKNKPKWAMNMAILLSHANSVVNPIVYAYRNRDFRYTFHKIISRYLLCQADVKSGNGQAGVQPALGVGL

[4] = target: human recombinant A2A adenosine receptors (Homo sapiens, UniProt P29274); assay: Radioligand binding to hA2A receptors expressed in CHO cells; conditions: for [3H] ZM 241385 binding to hA2A receptors, percentage in parentheses: percentage given after the > bound, meaning not defined in the patent
[5] = read-out: [3H] DPCPX binding to hA1, CHO cell membranes, 1 nM [3H]-DPCPX, geometric mean with confidence limits in parentheses

Chain of human recombinant A2A adenosine receptors (P29274 whole entry): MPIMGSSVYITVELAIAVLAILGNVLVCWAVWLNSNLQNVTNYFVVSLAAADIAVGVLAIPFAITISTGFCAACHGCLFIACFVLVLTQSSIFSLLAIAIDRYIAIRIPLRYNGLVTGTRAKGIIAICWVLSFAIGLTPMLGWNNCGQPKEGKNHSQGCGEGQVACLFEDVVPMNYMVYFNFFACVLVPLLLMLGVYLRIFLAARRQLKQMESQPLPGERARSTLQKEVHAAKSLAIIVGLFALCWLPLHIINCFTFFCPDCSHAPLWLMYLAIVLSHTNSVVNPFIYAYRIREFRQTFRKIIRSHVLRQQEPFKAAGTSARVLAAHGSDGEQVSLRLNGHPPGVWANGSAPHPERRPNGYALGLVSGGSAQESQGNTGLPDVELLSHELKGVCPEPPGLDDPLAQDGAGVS

Compound	[3H] DPCPX binding to hA1, percentage in parentheses [1]	Ki [2]	melting point	cAMP assay in CHO hA22B, percentage in parentheses [3]	[3H] ZM 241385 binding to hA2A receptors, percentage in parentheses [4]	[3H] MRE3008F20 binding to hA3 receptors, percentage in parentheses [2]	Ki [1, 5]	selectivity versus the adenosine hA1 subtype (in words) [2]	IC50 [3]	Ki [4]	Ki [1]	A3 receptor affinity (in words) [2]
CCCn1c(=O)c2c(nc3[nH]c(-c4ccc(F)cc4)cn32)n(Cc2ccccc2)c1=O [Compound 5, 1-Benzyl-7-(4-fluorophenyl)-3-propyl-1H-imidazo[1,2-f]purine-2,4(3H,8H)-dione]	90%	22 nM	250 °C	–	97%	–	–	–	–	–	–	–
CCCn1c(=O)c2c(nc3n2CC(CC)=C3)n(Cc2ccccc2)c1=O [Compound 18, 1-Benzyl-7-ethyl-3-propyl-1H-pyrrolo[1,2-f]purine-2,4(3H,6H)-dione]	–	–	–	71%	–	–	–	–	–	–	–	–
CCCn1c(=O)c2c(nc3[nH]c(C4CCCCC4)cn32)n(Cc2ccccc2)c1=O [Compound 24, 1-Benzyl-7-cyclohexyl-3-propyl-1H-imidazo[1,2-f]purine-2,4(3H,8H)-dione]	72%	555 nM	130 to 132 °C	71%	99%	–	–	–	–	–	–	–
CCCn1c(=O)c2c(nc3n2C(C)C(C)=C3)n(Cc2ccccc2)c1=O (stereo not shown) [Compound 19, 1-Benzyl-6,7-dimethyl-3-propyl-1H-pyrrolo[1,2-f]purine-2,4(3H,6H)-dione]	65%	80 nM	–	60%	91%	–	–	–	–	–	–	–
CCCn1c(=O)c2c(nc3[nH]c(C4CC4)cn32)n(Cc2ccccc2)c1=O [Compound 23, 1-Benzyl-7-cyclopropyl-3-propyl-1H-imidazo[1,2-f]purine-2,4(3H,8H)-dione]	–	23 nM	244 to 245 °C	79%	98%	–	350 nM	–	–	–	–	–
CCCn1c(=O)c2c(nc3[nH]c(CC)c(C)n32)n(Cc2ccccc2)c1=O [Compound 26, 1-Benzyl-7-ethyl-6-methyl-3-propyl-1H-imidazo[1,2-f]purine-2,4(3H,8H)-dione]	80%	60 nM	230 °C	73%	97%	–	–	–	–	–	–	–
Cc1cn2c(nc3c2c(=O)n(C)c(=O)n3C)[nH]1 [Compound 27, 1,3,7-Trimethyl-1H-imidazo[1,2-f]purine-2,4(3H,8H)-dione]	96%	> 1000 nM	–	88%	99%	(93%)	–	–	> 1000 nM	> 1000 nM	> 1000 nM	–
CCCn1c(=O)c2c(nc3[nH]c(C)cn32)n(Cc2ccccc2)c1=O [Compound 10, 1-Benzyl-7-methyl-3-propyl-1H-imidazo[1,2-f]purine-2,4(3H,8H)-dione]	–	–	255 °C	–	–	–	–	–	2060 nM	–	–	–
CCCn1c(=O)c2c(nc3n2CC(c2ccccc2)=NN3C)n(Cc2ccccc2)c1=O [Compound 6, 8-Benzyl-1-methyl-3-phenyl-6-propyl-1,4-dihydro-8H-1,2,4a,6,8,9-hexaaza-fluorene-5,7-dione]	79%	> 1000 nM	–	94%	99%	(99%)	–	–	> 1000 nM	> 1000 nM	> 1000 nM	–
CCCn1c(=O)c2c(nc3n2CC(C)=C3)n(Cc2ccccc2)c1=O [Compound 17, 1-Benzyl-7-methyl-3-propyl-1H-pyrrolo[1,2-f]purine-2,4(3H,6H)-dione]	–	8 nM	–	–	99%	–	–	–	400 nM	> 5000 nM	3030 nM	–

The next lines start with results.

[3H] DPCPX binding to hA1, percentage in parentheses [1]	Ki [2]	melting point	cAMP assay in CHO hA22B, percentage in parentheses [3]	[3H] ZM 241385 binding to hA2A receptors, percentage in parentheses [4]	[3H] MRE3008F20 binding to hA3 receptors, percentage in parentheses [2]	Ki [1, 5]	selectivity versus the adenosine hA1 subtype (in words) [2]	IC50 [3]	Ki [4]	Ki [1]	Compound	A3 receptor affinity (in words) [2]
51%	99 nM	230 °C	86%	99%	–	–	–	–	–	–	CCCn1c(=O)c2c(nc3[nH]c(C(C)(C)C)cn32)n(Cc2ccccc2)c1=O [Compound 22, 1-Benzyl-7-tert-butyl-3-propyl-1H-imidazo[1,2-f]purine-2,4(3H,8H)-dione]	–
83%	115 nM	255 °C	–	99%	–	–	–	–	–	–	CCCn1c(=O)c2c(nc3[nH]c(-c4ccccc4)cn32)n(Cc2ccccc2)c1=O [Compound 2, 1-Benzyl-7-phenyl-3-propyl-1H-imidazo[1,2-f]purine-2,4(3H,8H)-dione]	–
99%	55 nM	257 °C	–	99%	–	–	–	–	–	–	CCCn1c(=O)c2c(nc3[nH]c(-c4ccc(OC)cc4)cn32)n(Cc2ccccc2)c1=O [Compound 3, 1-Benzyl-7-(4-methoxyphenyl)-3-propyl-1H-imidazo[1,2-f]purine-2,4(3H,8H)-dione]	–
95%	> 1000 nM	272 °C	–	98%	(90%)	–	–	–	–	–	CCCn1c(=O)c2c(nc3[nH]c(-c4ccc(-c5ccccc5)cc4)cn32)n(Cc2ccccc2)c1=O [Compound 4, 1-Benzyl-7-(biphenyl-4-yl)-3-propyl-1H-imidazo[1,2-f]purine-2,4(3H,8H)-dione]	–
75%	200 nM	–	–	99%	–	–	–	–	–	–	CCCn1c(=O)c2c(nc3n2CC(c2ccccc2)=C3)n(Cc2ccccc2)c1=O [Compound 1, 1-Benzyl-7-phenyl-3-propyl-1H-pyrrolo[1,2-f]purine-2,4(3H,6H)-dione]	–
65%	15 nM	285 °C	97%	99%	–	–	–	–	–	–	CCCn1c(=O)c2c(nc3[nH]c(CC)cn32)n(Cc2ccccc2)c1=O [Compound 20, 1-Benzyl-7-ethyl-3-propyl-1H-imidazo[1,2-f]purine-2,4(3H,8H)-dione]	–
–	99 nM	–	61%	78%	–	373 nM	significant loss of selectivity	> 1000 nM	> 1000 nM	–	CCCn1c(=O)c2c(nc3[nH]c(-c4ccccc4)cn32)n(CCC)c1=O [Compound 8, 7-Phenyl-1,3-dipropyl-1H-imidazo[1,2-f]purine-2,4(3H,8H)-dione]	substantial maintenance of A3 receptor affinity
91%	> 1000 nM	–	83%	99%	(99%)	–	–	> 1000 nM	> 1000 nM	> 1000 nM	CCCn1c(=O)c2c(nc3n2CC(c2ccccc2)=NN3CCO)n(Cc2ccccc2)c1=O [Compound 7, 8-Benzyl-1-(2-hydroxy-ethyl)-3-phenyl-6-propyl-1,4-dihydro-8H-1,2,4a,6,8,9-hexaaza-fluorene-5,7-dione]	–
–	144 nM	–	99%	86%	–	476 nM	significant loss of selectivity	> 1000 nM	> 1000 nM	–	CC(C)Cn1c(=O)c2c(nc3[nH]c(-c4ccccc4)cn32)n(CC(C)C)c1=O [Compound 9, 1,3-Diisobutyl-7-phenyl-1H-imidazo[1,2-f]purine-2,4(3H,8H)-dione]	substantial maintenance of A3 receptor affinity
